In patent US20130165450A1, “Novel Thiazol-Carboximide Derivatives as PDK1 Inhibitors” (priority 2010, published 2013):

Molecular target: T1, recombinant human PDK1 (amino acids 51-556) (Homo sapiens, UniProt O15530)
T1 construct: containing amino acids 51-556 of the human PDK1 enzyme; made in house
T1 sequence (O15530 51-556): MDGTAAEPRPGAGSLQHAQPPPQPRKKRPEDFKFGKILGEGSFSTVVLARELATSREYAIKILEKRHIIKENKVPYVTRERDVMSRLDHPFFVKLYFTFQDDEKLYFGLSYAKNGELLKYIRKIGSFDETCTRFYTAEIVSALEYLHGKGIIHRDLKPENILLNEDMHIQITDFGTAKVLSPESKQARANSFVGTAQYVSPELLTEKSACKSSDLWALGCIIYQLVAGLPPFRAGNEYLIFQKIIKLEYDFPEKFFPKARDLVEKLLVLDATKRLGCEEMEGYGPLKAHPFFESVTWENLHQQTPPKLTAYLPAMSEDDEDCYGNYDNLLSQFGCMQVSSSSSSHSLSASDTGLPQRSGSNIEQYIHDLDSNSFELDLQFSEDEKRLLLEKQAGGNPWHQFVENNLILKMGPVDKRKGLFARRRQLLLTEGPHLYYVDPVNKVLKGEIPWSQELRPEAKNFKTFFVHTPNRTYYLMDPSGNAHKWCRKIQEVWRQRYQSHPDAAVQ
Assay: PDK1 IMAP fluorescence polarization kinase assay
Format: biochemical
Conditions: 10 nM PDK1, 100 nM peptide substrate, 100 nM PIFtide, 2.5 uM ATP, 1.5 hours

IC50 (numeric values) [nM]	IC50 (rated A-D) [nM]	Compound
7		Nc1ccc(N2CCC[C@@H](N)C2)c(NC(=O)c2csc(-c3cnn(Cc4cccs4)c3)n2)c1 [Compound 1, N-[5-amino-2-(3(R)-amino-1-piperidinyl)phenyl]-2-[1-(2-thienylmethyl)-1H-pyrazol-4-yl]-4-thiazolecarboxamide]
	251 to 1000	CN(C)CCCn1cc(-c2nc(C(=O)Nc3cc(N)ccc3N3CCC[C@@H](N)C3)cs2)cn1 [Compound 2, N-[5-amino-2-(3(R)-amino-1-piperidinyl)phenyl]-2-[1-[3-(dimethylamino)propyl]-1H-pyrazol-4-yl]-4-thiazolecarboxamide]
	1 to 50	Nc1ccc(N2CCC[C@@H](N)C2)c(NC(=O)c2csc(-c3cnn(Cc4ccccc4)c3)n2)c1 [Compound 3, N-[5-amino-2-(3(R)-amino-1-piperidinyl)phenyl]-2-[1-(phenylmethyl)-1H-pyrazol-4-yl]-4-thiazolecarboxamide]
	251 to 1000	Nc1ccc(N2CCC[C@@H](N)C2)c(NC(=O)c2csc(-c3cnn(CCN4CCOCC4)c3)n2)c1 [Compound 4, N-[5-amino-2-(3(R)-amino-1-piperidinyl)phenyl]-2-[1-[2-(4-morpholinyl)ethyl]-1H-pyrazol-4-yl]-4-thiazolecarboxamide]
81		CNC1(C(N)=O)CCN(c2ccc(N)cc2NC(=O)c2csc(-c3cnn(Cc4cccs4)c3)n2)CC1 [Compound 5, 1-[4-amino-2-[[[2-[1-(2-thienylmethyl)-1H-pyrazol-4-yl]-4-thiazolyl]carbonyl]amino]phenyl]-4-(methylamino)-4-piperidinecarboxamide]
	51 to 250	NCC1CCN(c2c(F)cccc2NC(=O)c2csc(-c3cnn(Cc4cccs4)c3)n2)CC1 [Compound 6, N-[2-[4-(aminomethyl)-1-piperidinyl]-3-fluorophenyl]-2-[1-(2-thienylmethyl)-1H-pyrazol-4-yl]-4-thiazolecarboxamide]
60		Nc1ccc(N2CCC3(CCCNC3)CC2)c(NC(=O)c2csc(-c3cnn(Cc4cccs4)c3)n2)c1 [Compound 7, N-[5-amino-2-(2,9-diazaspiro[5.5]undec-9-yl)phenyl]-2-[1-(2-thienylmethyl)-1H-pyrazol-4-yl]-4-thiazolecarboxamide]
	1 to 50	NCC1CCN(c2ccc(N)cc2NC(=O)c2csc(-c3cnn(Cc4cccs4)c3)n2)CC1 [Compound 8, N-[5-amino-2-[4-(aminomethyl)-1-piperidinyl]phenyl]-2-[1-(2-thienylmethyl)-1H-pyrazol-4-yl]-4-thiazolecarboxamide]
	51 to 250	Nc1ccc(N2CCC[C@@H](N)C2)c(NC(=O)c2csc(-c3cnn(Cc4ccncc4)c3)n2)c1 [Compound 9, N-[5-amino-2-(3(R)-amino-1-piperidinyl)phenyl]-2-[1-(4-pyridinylmethyl)-1H-pyrazol-4-yl]-4-thiazolecarboxamide]
	1 to 50	Nc1ccc(N2CC[C@@H](N)C2)c(NC(=O)c2csc(-c3cnn(Cc4cccs4)c3)n2)c1 [Compound 10, N-[5-amino-2-(3(R)-amino-1-pyrrolidinyl)phenyl]-2-[1-(2-thienylmethyl)-1H-pyrazol-4-yl]-4-thiazolecarboxamide]
	> 1000	CCOC(=O)C1CCCN(c2ccc(N)cc2NC(=O)c2csc(-c3cnn(Cc4cccs4)c3)n2)C1 (centres unmarked) [Compound 11, ethyl 1-[4-amino-2-[[[2-[1-(2-thienylmethyl)-1H-pyrazol-4-yl]-4-thiazolyl]carbonyl]amino]phenyl]-3-piperidinecarboxylate]
	251 to 1000	CCOC(=O)C1CCN(c2ccc(N)cc2NC(=O)c2csc(-c3cnn(Cc4cccs4)c3)n2)CC1 [Compound 12, ethyl 1-[4-amino-2-[[[2-[1-(2-thienylmethyl)-1H-pyrazol-4-yl]-4-thiazolyl]carbonyl]amino]phenyl]-4-piperidinecarboxylate]
	1 to 50	Nc1ccc(N2CCC[C@@H](N)C2)c(NC(=O)c2csc(-c3cnn(Cc4ccccn4)c3)n2)c1 [Compound 13, N-[5-amino-2-(3(R)-amino-1-piperidinyl)phenyl]-2-[1-(2-pyridinylmethyl)-1H-pyrazol-4-yl]-4-thiazolecarboxamide]
	1 to 50	Nc1ccc(N2CCC[C@@H](N)C2)c(NC(=O)c2csc(-c3cnn(Cc4ccc(F)c(F)c4)c3)n2)c1 [Compound 14, N-[5-amino-2-(3(R)-amino-1-piperidinyl)phenyl]-2-[1-[(3,4-difluorophenyl)methyl]-1H-pyrazol-4-yl]-4-thiazolecarboxamide]
	1 to 50	Nc1ccc(N2CCC3(CC2)OCCO3)c(NC(=O)c2csc(-c3cnn(Cc4cccc(F)c4)c3)n2)c1 [Compound 15, N-[5-amino-2-(1,4-dioxa-8-azaspiro[4.5]dec-8-yl)phenyl]-2-[1-[(3-fluorophenyl)methyl]-1H-pyrazol-4-yl]-4-thiazolecarboxamide]
	1 to 50	Nc1ccc(N2CCC[C@@H](N)C2)c(NC(=O)c2csc(-c3cnn(Cc4cc(F)cc(F)c4)c3)n2)c1 [Compound 16, N-[5-amino-2-(3(R)-amino-1-piperidinyl)phenyl]-2-[1-[(3,5-difluorophenyl)methyl]-1H-pyrazol-4-yl]-4-thiazolecarboxamide]
	1 to 50	Nc1ccc(N2CCC[C@@H](N)C2)c(NC(=O)c2csc(-c3cnn(CCc4ccccc4)c3)n2)c1 [Compound 17, N-[5-amino-2-(3(R)-amino-1-piperidinyl)phenyl]-2-[1-(2-phenylethyl)-1H-pyrazol-4-yl]-4-thiazolecarboxamide]
	1 to 50	Nc1ccc(N2CCC[C@@H](N)C2)c(NC(=O)c2csc(-c3cnn(Cc4cccnc4)c3)n2)c1 [Compound 18, N-[5-amino-2-(3(R)-amino-1-piperidinyl)phenyl]-2-[1-(3-pyridinylmethyl)-1H-pyrazol-4-yl]-4-thiazolecarboxamide]
	1 to 50	Nc1ccc(N2CCC[C@@H](N)C2)c(NC(=O)c2csc(-c3cnn(Cc4cccc(F)c4)c3)n2)c1 [Compound 19, N-[5-amino-2-(3(R)-amino-1-piperidinyl)phenyl]-2-[1-[(3-fluorophenyl)methyl]-1H-pyrazol-4-yl]-4-thiazolecarboxamide]
	51 to 250	Nc1ccc(N2CCC3(CCCNC3)CC2)c(NC(=O)c2csc(-c3cnn(Cc4ccccn4)c3)n2)c1 [Compound 20, N-[5-amino-2-(2,9-diazaspiro[5.5]undec-9-yl)phenyl]-2-[1-(2-pyridinylmethyl)-1H-pyrazol-4-yl]-4-thiazolecarboxamide]
	1 to 50	Nc1ccc(N2CCC[C@@H](N)C2)c(NC(=O)c2csc(-c3cnn(Cc4ccccc4F)c3)n2)c1 [Compound 21, N-[5-amino-2-(3(R)-amino-1-piperidinyl)phenyl]-2-[1-[(2-fluorophenyl)methyl]-1H-pyrazol-4-yl]-4-thiazolecarboxamide]
	1 to 50	Nc1ccc(N2CCC[C@@H](N)C2)c(NC(=O)c2csc(-c3cnn(Cc4cc(F)ccc4F)c3)n2)c1 [Compound 22, N-[5-amino-2-(3(R)-amino-1-piperidinyl)phenyl]-2-[1-[(2,5-difluorophenyl)methyl]-1H-pyrazol-4-yl]-4-thiazolecarboxamide]
	1 to 50	N[C@@H]1CCCN(c2c(F)cccc2NC(=O)c2csc(-c3cnn(Cc4cccs4)c3)n2)C1 [Compound 23, N-[2-(3(R)-amino-1-piperidinyl)-3-fluorophenyl]-2-[1-(2-thienylmethyl)-1H-pyrazol-4-yl]-4-thiazolecarboxamide]
	51 to 250	NCC1CCN(c2ccc(N)cc2NC(=O)c2csc(-c3cnn(Cc4ccccn4)c3)n2)CC1 [Compound 24, N-[5-amino-2-[4-(aminomethyl)-1-piperidinyl]phenyl]-2-[1-(2-pyridinylmethyl)-1H-pyrazol-4-yl]-4-thiazolecarboxamide]
	51 to 250	N[C@@H]1CCCN(c2c(F)cccc2NC(=O)c2csc(-c3cnn(Cc4ccccc4)c3)n2)C1 [Compound 25, N-[2-(3(R)-amino-1-piperidinyl)-3-fluorophenyl]-2-[1-(phenylmethyl)-1H-pyrazol-4-yl]-4-thiazolecarboxamide]
	1 to 50	COCCn1cc(-c2nc(C(=O)Nc3cc(N)ccc3N3CCC[C@@H](N)C3)cs2)cn1 [Compound 26, N-[5-amino-2-(3(R)-amino-1-piperidinyl)phenyl]-2-[1-(2-methoxyethyl)-1H-pyrazol-4-yl]-4-thiazolecarboxamide]
	51 to 250	N[C@@H]1CCCN(c2c(F)cccc2NC(=O)c2csc(-c3cnn(Cc4ccccn4)c3)n2)C1 [Compound 27, N-[2-(3(R)-amino-1-piperidinyl)-3-fluorophenyl]-2-[1-(2-pyridinylmethyl)-1H-pyrazol-4-yl]-4-thiazolecarboxamide]
	51 to 250	Nc1ccc(N2CC[C@@H](N)C2)c(NC(=O)c2csc(-c3cnn(Cc4ccccn4)c3)n2)c1 [Compound 29, N-[5-amino-2-(3(R)-amino-1-pyrrolidinyl)phenyl]-2-[1-(2-pyridinylmethyl)-1H-pyrazol-4-yl]-4-thiazolecarboxamide]
	51 to 250	CC(c1ccccc1)n1cc(-c2nc(C(=O)Nc3cc(N)ccc3N3CCC[C@@H](N)C3)cs2)cn1 (stereo partly drawn) [Compound 30, N-[5-amino-2-(3(R)-amino-1-piperidinyl)phenyl]-2-[1-(1-phenylethyl)-1H-pyrazol-4-yl]-4-thiazolecarboxamide]
